Here are results for eight compounds from PubChem BioAssay (NCI).

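96-well plates; 48 h exposure; 5 concentrations. Endpoints by linear interpolation between flanking doses. Not reached: highest tested concentration assigned. TGI is the concentration that stops growth completely.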

Some test systems named below: 786-0 renal; A498 renal; A549 NSCLC; BT-549 breast; CCRF-CEM leukemia; HL-60(TB) leukemia; IGROV1 ovarian; KM12 colon; MALME-3M melanoma; MCF7 breast; MDA-MB-231 breast; MDA-MB-435; NCI-H226 lung; NCI-H460 lung; OVCAR-5 ovarian; OVCAR-8 ovarian; SF-539 CNS; SK-MEL-28 melanoma; DU-145 prostate; SN12C renal.
Common to all, as to test: NCI-60 cell line screen, 48 h

For the compound `CN(NC(=O)c1cccs1)C1=NCCN1`, the TGI in the assay with 786-0 renal, with A498 renal, with A549 NSCLC, in the assay with BT-549 breast, in the assay with CCRF-CEM leukemia and with HL-60(TB) leukemia was > 100 µM in each case. For the same compound, the TGI with IGROV1 ovarian, in the assay on KM12 colon, with MALME-3M melanoma, with MCF7 breast, in the assay on MDA-MB-231 breast and with MDA-MB-435 was > 100 µM each time. Besides, the TGI in the assay on NCI-H226 lung, in the assay with NCI-H460 lung, in the assay on OVCAR-5 ovarian, in the assay with OVCAR-8 ovarian, with SF-539 CNS and with SK-MEL-28 melanoma was > 100 µM throughout.

Regarding `COc1ccc2[nH]c3c(C)c4cnccc4c(C)c3c2c1`, the TGI with 786-0 renal is 1.64 µM; with A549 NSCLC it was 3.65 µM; in the assay with BT-549 breast, > 10 µM; in the assay with CCRF-CEM leukemia, > 10 µM; in the assay on DU-145 prostate it was 9.93 µM; in the assay on HL-60(TB) leukemia, 4.64 µM. For the same compound, the TGI with IGROV1 ovarian was > 10 µM; with KM12 colon it was 2.83 µM; in the assay on MALME-3M melanoma it was 2.82 µM; in the assay on MCF7 breast it was 3.9 µM; in the assay on MDA-MB-231 breast it was 6.77 µM; with MDA-MB-435, 2.84 µM. For the same compound, the TGI in the assay with NCI-H226 lung was 9.27 µM; with NCI-H460 lung, 3.58 µM; in the assay with OVCAR-5 ovarian, > 10 µM; with OVCAR-8 ovarian, 2.2 µM; with SF-539 CNS it was 3.3 µM; in the assay on SK-MEL-28 melanoma, 3.44 µM. In addition, the TGI in the assay with SN12C renal was > 10 µM.

As for `O=C(/C=C/c1ccc(F)c(F)c1)OCCc1ccccc1`, the TGI in the assay with 786-0 renal, in the assay on A549 NSCLC, with BT-549 breast, in the assay on CCRF-CEM leukemia, in the assay on DU-145 prostate and with HL-60(TB) leukemia was > 100 µM in each case. Moreover, the TGI in the assay on IGROV1 ovarian, with KM12 colon, in the assay with MALME-3M melanoma, in the assay with MCF7 breast, with MDA-MB-231 breast and in the assay with MDA-MB-435 was > 100 µM each time. Besides, the TGI in the assay on NCI-H226 lung, with NCI-H460 lung, in the assay on OVCAR-5 ovarian, in the assay on OVCAR-8 ovarian, with SF-539 CNS and with SK-MEL-28 melanoma was > 100 µM each time. Also, in the assay with SN12C renal, the TGI was > 100 µM.

For `CCOC(=O)[C@H]1C[C@]23CN(C(=O)OC(C)(C)C)CC[C@H]2CCC2(SCCCS2)[C@@H]3N1C`, the TGI in the assay on 786-0 renal, with A498 renal, with A549 NSCLC, with BT-549 breast, in the assay on CCRF-CEM leukemia and with DU-145 prostate was > 100 µM each time. Moreover, the TGI with HL-60(TB) leukemia was 47.3 µM; in the assay with IGROV1 ovarian, > 100 µM; in the assay on KM12 colon, > 100 µM; with MALME-3M melanoma, 74.6 µM; in the assay on MCF7 breast, > 100 µM; with MDA-MB-435, > 100 µM. The TGI in the assay on NCI-H226 lung, in the assay with NCI-H460 lung, with OVCAR-5 ovarian, with OVCAR-8 ovarian, in the assay with SF-539 CNS and in the assay on SK-MEL-28 melanoma was > 100 µM in each case. This compound displayed a TGI in the assay on SN12C renal of 44.3 µM.

As to `CCOC(=O)CCC(NC(=O)c1ccc(Oc2nc3ccccc3nc2C(=O)OCC)cc1)C(=O)OCC` (stereo not given), the TGI in the assay on 786-0 renal, in the assay with A549 NSCLC, in the assay on BT-549 breast, with CCRF-CEM leukemia, in the assay with DU-145 prostate and in the assay on HL-60(TB) leukemia was > 100 µM throughout. Also, the TGI in the assay on IGROV1 ovarian is > 100 µM; in the assay with KM12 colon, > 100 µM; in the assay on MCF7 breast, > 100 µM; with MDA-MB-231 breast it was 95.9 µM; in the assay on MDA-MB-435 it was > 100 µM; in the assay with NCI-H460 lung it was > 100 µM. Also, the TGI with OVCAR-5 ovarian, in the assay on OVCAR-8 ovarian, with SF-539 CNS, with SK-MEL-28 melanoma and in the assay on SN12C renal was > 100 µM in each case.

Consider `O=[N+]([O-])c1ccc(N2N=C(c3ccc4ccccc4c3O)CC2c2ccc(Cl)cc2Cl)c([N+](=O)[O-])c1` (stereo not given), for which the TGI was > 100 µM in the assay with 786-0 renal; > 100 µM with A549 NSCLC; > 100 µM in the assay on BT-549 breast; 35.5 µM in the assay with CCRF-CEM leukemia; > 100 µM in the assay with DU-145 prostate; 77.4 µM in the assay with HL-60(TB) leukemia. Moreover, the TGI in the assay with IGROV1 ovarian, in the assay on KM12 colon, with MALME-3M melanoma, in the assay with MCF7 breast, in the assay on MDA-MB-231 breast and in the assay with MDA-MB-435 was > 100 µM each time. Moreover, the TGI is > 100 µM in the assay with NCI-H226 lung; > 100 µM in the assay on NCI-H460 lung; > 100 µM with OVCAR-5 ovarian; > 100 µM with OVCAR-8 ovarian; 70.6 µM in the assay with SF-539 CNS; > 100 µM in the assay on SK-MEL-28 melanoma. For the same compound, the TGI with SN12C renal was > 100 µM.

Consider `COc1ccc(C(=O)c2ccc(-n3c4ccccc4c4ccc5c(c43)C(=O)C=CC5=O)cc2)cc1`, for which the TGI with 786-0 renal is 1.3 µM; in the assay on A498 renal, 5.09 µM; in the assay on A549 NSCLC, 10.8 µM; in the assay with BT-549 breast, 8.06 µM; in the assay on DU-145 prostate, > 21.8 µM; in the assay on IGROV1 ovarian, 10.4 µM. Also, the TGI with KM12 colon came to 10 µM; with MCF7 breast, 2.6 µM; with MDA-MB-231 breast, 5.22 µM; in the assay with MDA-MB-435, 3.14 µM; in the assay on NCI-H226 lung, 69.4 µM; in the assay with NCI-H460 lung it was 19.3 µM. In addition, the TGI in the assay with OVCAR-5 ovarian is 40.3 µM; in the assay with SF-539 CNS it was 5.78 µM; in the assay on SN12C renal it was 4.01 µM.

Regarding `CCOC(=O)C(Cc1cn(S(=O)(=O)c2ccc(C)cc2)cn1)P(=O)(OCC)OCC` (stereo not given), the TGI with 786-0 renal, with A549 NSCLC, in the assay on BT-549 breast, with CCRF-CEM leukemia, in the assay on DU-145 prostate and in the assay on HL-60(TB) leukemia was > 100 µM throughout. For the same compound, the TGI with IGROV1 ovarian, in the assay on KM12 colon, in the assay with MALME-3M melanoma, in the assay on MCF7 breast, in the assay with MDA-MB-231 breast and in the assay with MDA-MB-435 was > 100 µM each time. In addition, the TGI with NCI-H226 lung, in the assay on NCI-H460 lung, in the assay on OVCAR-5 ovarian, with OVCAR-8 ovarian, with SF-539 CNS and with SK-MEL-28 melanoma was > 100 µM in each case. For the same compound, in the assay on SN12C renal, the TGI was > 100 µM.
